# In patent US5686495A, “Substituted hydrazinedicarboximidamides and methods of use thereof” (Cambridge NeuroScience, Inc., priority 1995, dated 1997):
# Entries after “also recorded” stand apart in the source; their conditions may differ. Counter-ions that a name gives are not always drawn. Like-named read-outs stand apart in the source and are kept apart here.
# Columns and labels:
# [1] = tested on: 3H-glutamate release from rat brain synaptosomes; assay: Inhibition of K+-evoked 3H-glutamate release from synaptosomes (rapid superfusion); assay type: cell-based
# Procedure: To study the release of presynaptic ^3 H-glutamate, synaptosomes from young rats were used. CD Male rats of 4 to 6 weeks (50-75 g) were used for the preparation of synaptosomes. Rats were killed by decapitation with guillotine and the skull bone was opened in the center with the pointed blade of dissection scissors. The bone is then peeled away with a bone cutter and the brain is pried with a micro spatula. The cerebellum is removed and the rest of the brain is placed in 35 ml of 0.32M Sucrose solution and homogenized in a Thomas glass teflon homogenizer C at the maximum power setting (about 450 rpm) with 16 strokes. The pestle is rinsed with 5 ml of sucrose solution and added to the homogenate. The homogenate is centrifuged for 10 min at 3500 rpm (1500 g) in a SS-34 rotor in Sorvall RC-5B. The resulting pellet (P1) is discarded and the supernatant (S1) is recentrifuged for 20 min at 8700 rpm (8500 g). The supernatant (S2) is discarded and the pellet (P2) is resuspended in 5 ml of 0.32M sucrose and hand homogenized with 4 strokes (Thomas C) and the volume was made up to 8 ml. This homogenate was layered on 20 ml of 0.8M sucrose solution in two centrifuge tubes and spun for 25 minutes at 8700 rpm (8500 g). At the end of this spin, most of the myelin stays at the interphase of 0.32M and 0.8M sucrose and mitochondria pellet as a brown pellet. The synaptosomes are dispersed in the 0.8M sucrose. Using a 10 ml pipette, the 0.8M sucrose layer is collected (without disturbing the top myelin layer or the pellet) and diluted slowly with an equal volume of chilled basal buffer, while stirring gently with a Pasteur pipette. This diluted solution is centrifuged for 10 min at 10,000 rpm (12,000 g) and the pellet is resuspended in 1.5 ml of basal buffer and hand-homogenized in a Wheaton glass-glass 7 ml homogenizer with 8 strokes.
# The synaptosomal homogenate is diluted 1 ml to 10 ml with basal buffer. This dilution gives a protein concentration of 500 to 600 μg/ml. One hundred μl of this diluted prep with 50-60 μg of protein is used for each superfusion event. […] The diluted synaptosomal solution was kept on ice until the end of the experiment.
# ^3 H-glutamate (purchased from NEN) is stored in the refrigerator. Pipette 6 μl ([…]; 40 to 55 Ci/mmol) into a disposable test tube. Add 100 μl of diluted prep and mix gently on vortex and incubate at 30° C. for 10 min. ^3 H-glutamate is taken up by sodium-coupledglutamate transporter present in synaptosomal membranes. After 10 min, dilute the incubation mixture with 690 μl of basal buffer. This solution is then transferred in Tygon tubing that is connected to the synaptosome loading chamber. Using a syringe filler with air, the solution is forced through the Millipore SC--GF/F--Millipore SC filter sandwich. These filters retain the synaptosomes and the solution flows through.
# An important component of the superfusion setup is the custom made stainless steel "General Valve" three-valve solenoid operated superfusion chamber with an outlet for the effluent. The three inlets are connected to stainless steel buffer reservoirs that contain (1) wash buffer, (2) control buffer and (3) experimental buffer which are kept under 40 psi of nitrogen gas through teflon tubing connections. The superfusion is controlled through a menu-driven program on an Apple IIe computer. See Turner, J. T. et al., Anal. Biochem. 178:8-16 (1989), and U.S. Pat. No. 4,891,185, the disclosures of which are fully incorporated by reference herein.
# The superfusion chamber has a teflon bushing and a stainless steel washer fixed with the flat surface facing the filters. A GF/B filter disc is placed first in the chamber to eliminate the switching related artifacts. The synaptosome loaded sandwich is then placed facing the synaptosomes into the flow followed by RA filter, stainless steel screen and a washer with the flat side facing the screen.
# [2] = tested on: potassium-stimulated 45Ca uptake of synaptosomes; assay: Potassium-stimulated 45Ca uptake into synaptosomes; assay type: cell-based, rat
# Procedure: Several compounds were also tested to determine whether the Ca^2+ dependent and independent components of glutamate release are related to the blockage of ^45 Ca uptake. Calcium uptake is one step in the cascade of events which occur in neuronal cell death from ischemia. See Bassaclough and Leach, Current Patents Ltd., 2-27. The Ca-flux protocol is as follows. Rat brain synaptosomes were prepared according to Hajos, Brain Res. 93:485 (1975). Synaptosomes were suspended in low potassium "LK" buffer (containing 3 mM KCl) at 2 mg/ml. […] After 5 seconds, the ^45 Ca flux was stopped with 0.9 ml quench solution (LK+10 mM EGTA). The solution was filtered under vacuum and the filters washed with 15 ml of quench buffer. The effect of drug is expressed as % inhibition (or block) of control potassium-stimulated ^45 Ca influx. This method is an adaptation of the method disclosed by Nachsen and Blaustein, J. Physiol. 361:251-268 (1985).
# [3] = tested on: sodium channels in N1E-115 neuroblastoma cells; assay: Whole cell sodium currents in voltage clamped N1E-115 neuroblastoma cells; assay type: cell-based
# Source text: Whole cell sodium currents were elicited in voltage clamped N1E-115 neuroblastoma cells, using the stimulus protocol shown on the top of FIG. 7.
# [4] = tested on: ω-conotoxin-sensitive N-type calcium channels; assay: Electrophysiology on N-type calcium channels of single dorsal root ganglion cells; assay type: cell-based, bullfrog
# Procedure: Single bullfrog dorsal root ganglion cells, which express ω-conotoxin-sensitive N-type calcium channels, were treated with 5 uM of N,N'-di(acenaphthyl) guanidine. The solution also contained (in mM) CsCl, 90; creatine phosphate, 5; MgATP, 5; tris GTP, 0.3; EGTA, 10; HEPES, 10; pH 7.2. […] Calcium channel rundown during the recording period may account for the lack of complete reversal of inhibition. This further supports the hypothesis that certain substituted guanidines inhibit neurotransmitter release by […] presynaptic calcium channels.
# [5] = tested on: hippocampal slices (Schaffer collateral synaptic potentials); assay: Hippocampal slice electrophysiology of excitatory synaptic transmission (field EPSP, population spikes); design: species or system Sprague-Dawley rats; conditions: for reversibility of effect: following washout
# Procedure: Transverse sections of hippocampus were obtained from 4-6 week old Sprague-Dawley rats and maintained under standard conditions. […] Extracellular excitatory post synaptic potentials (EPSP's) were recorded by placing a saline-filled glass microelectrode in either the stratum radiatum or stratum lacunosum. Population spikes were recorded by placing an electrode in the stratum pyramidole.
# sigma receptor = assay: Sigma receptor binding against 3H-DTG
# [6] = tested on: Ca2+-dependent glutamate release stimulated with the sodium channel activator veratridine; assay: Glutamate release of synaptosomes depolarized with veratridine; assay type: cell-based; conditions: various concentrations
# [7] = Rattus norvegicus, read-out: Inhibition of Glutamate Release (Persistent Component), % Inhibition @ 10 uM
# [8] = Rattus norvegicus, read-out: Inhibition of Glutamate Release (Persistent Component), IC50
# [9] = Rattus norvegicus, read-out: Inhibition of 45Ca Uptake, % Inhibition @ 10 uM (SEM)
# [10] = bath application, listed as N,N'-di(5-acenaphthyl)guanidine, Hydrobromide
# [11] = Rattus norvegicus, read-out: inhibition of glutamate release
# [12] = Rattus norvegicus, read-out: relative level of glutamate release
# [13] = Rattus norvegicus; read-out: Inhibition of 45Ca Uptake, IC50
smiles,measurement,setting,value
"Br.N=C(Nc1ccc2c3c(cccc13)CC2)Nc1ccc2c3c(cccc13)CC2 [N,N'-Bis(5-acenaphthyl)guanidine, N,N'-Bis (5-Acenaphthyl)Guanidine Hydrobromide]",inhibition of Ca2+-dependent [3H]glutamate release (FIG. 3),"[1]; 0, 1, 3, 10 uM; K+ depolarization",potent inhibitor of glutamate release
same,selectivity between persistent and transient component of Ca2+-dependent glutamate release,[1]; 3-10 uM,blocks the persistent component of Ca^2+ -dependent glutamate release more than the initial transient component
same,inhibition at 10 µM,[1]; [7],92%
same,IC50,[1]; [8],3 µM
same,activity at 10 µM,"[2]; Rattus norvegicus, read-out: % Uptake vs. Control",43%
same,inhibition at 10 µM,[2]; [9],46%
same,IC50,"[2]; Rattus norvegicus, read-out: Inhibition of 45Ca Uptake, IC50",10.7 ± 3 µM
same,"block of inward sodium currents, average","[3]; 30 uM, pressure ejection, N=5 cells",40%
same,inhibition of inward sodium current in the cell shown (FIG. 7),"[3]; 30 uM, single cell of FIG. 7",49%
same,reversal of sodium current block,[3]; following washout,partially reversed following washout
same,inhibition of N-type calcium channel current,[4]; 5 uM,about 40%
same,inhibition of N-type calcium channel current,[4]; 20 uM,inhibited nearly all of the current
same,reversal of N-type current inhibition,[4]; in about 6 minutes,Most of the inhibition was reversed
same,inhibition at 20 µM,"[5]; Rattus norvegicus, bath application, read-out: reduction of field EPSP amplitude",80 to 90%
same,inhibition at 20 µM,"[5]; Rattus norvegicus, bath application, read-out: reduction of population spike amplitude",80 to 90%
same,effect on field EPSP,[5]; [10],reversibly blocked; also recorded: almost completely eliminated the field EPSP
same,effect on population spikes,[5]; [10],completely eliminated population spikes; also recorded: reversibly blocked these population spikes
same,reversibility of effect,"[5]; listed as N,N'-di(5-acenaphthyl)guanidine, Hydrobromide",completely reversible following washout; also recorded: fully reversible following washout; also recorded: fully recovered following washout
"N=C(NC12CC3CC(CC(C3)C1)C2)NC12CC3CC(CC(C3)C1)C2 [N,N'-di-(adamantan-1-yl)guanidine]",concentration dependence of 3H-glutamate release (FIG. 2),"[1]; 0, 10, 30, 100 uM; 2.1 second K+ depolarizing pulse",decreasing release of glutamate from synaptosomes
same,inhibition at 10 µM,[1]; [7],49%
same,inhibition at 30 µM,[1]; [11],55%
same,activity at 30 µM,[1]; [12],45%
same,activity at 100 µM,[1]; [12],13%
same,inhibition at 10 µM,[2]; [9],25%
same,IC50,"[2]; Rattus norvegicus; FIG. 6 curve fits; read-out: IC50, inhibition of potassium-stimulated Ca uptake of synaptosomes (FIG. 6)",6.6 µM
same,IC50,[2]; [13],25 ± 9 µM
same,IC50,sigma receptor,0.0165 µM
"N=C(NC1C2CC3CC(C2)CC1C3)NC1C2CC3CC(C2)CC1C3 (stereo not drawn) [N,N'-di-(adamantan-2-yl)guanidine, N,N'-(Adamantan-2-yl)guanidine Hydrochloride]",inhibition at 10 µM,[1]; [7],60%
same,inhibition at 30 µM,[1]; [11],60%
same,activity at 30 µM,[1]; [12],40%
same,activity at 100 µM,[1]; [12],20%
same,inhibition at 10 µM,[2]; [9],35%
same,IC50,[2]; [13],16.1 ± 10 µM
same,IC50,sigma receptor,0.0927 µM
same,inhibition of veratridine-stimulated glutamate release (FIG. 5),[6],inhibition of glutamate release in a dose dependent manner
N=C(Nc1ccc(F)c2ccccc12)Nc1ccc2c3c(cccc13)CC2 [N-(3- and 5-Acenaphthyl)-N'-(4-Fluoronaphthyl)-Guanidine.HCl],inhibition at 10 µM,[1]; [7],85%
same,IC50,[1]; [8],< 5 µM
same,inhibition at 10 µM,[2]; [9],47%
N=C(Nc1ccc(O)c2ccccc12)Nc1ccc2c3c(cccc13)CC2 [N-(5-acenaphthyl)-N'-(4-hydroxynaphthyl)guanidine],inhibition at 10 µM,[1]; [7],25%
same,inhibition at 10 µM,[2]; [9],35%
N=C(Nc1ccc2c3c(cccc13)CC2)NC1C2CC3CC(C2)CC1C3 (stereo not drawn) [N-(Adamantan-2-yl)-N'-(5-acenaphthyl)guanidine],inhibition at 10 µM,[1]; [7],63%
same,IC50,"[1]; Rattus norvegicus; read-out: Inhibition of Glutamate Release (Persistent Component), IC50",5 µM
same,inhibition at 10 µM,[2]; [9],69%
same,IC50,[2]; [13],4.8 µM
"Nc1ncnc2c1ncn2[C@@H]1O[C@H](CO)[C@@H](O)[C@H]1O [adenosine, reference compound]",inhibition at 1000 µM,"[5]; Rattus norvegicus, 1 mM, bath application, read-out: reduction of field EPSP amplitude",90%
same,effect on field EPSP,[5]; bath application,almost completely eliminated field EPSP's
same,effect on population spikes,[5]; bath application,totally blocked
same,reversibility of effect,[5],fully reversible following washout
